We go through 7 compounds from BindingDB's records for doi:10.1021/jm00083a001 (Ici Pharmaceuticals Group, 1992).

Molecules are shown by their SMILES.

The nature of the assay: Inhibition of prolyl 4-hydroxylase.
For `O=C(NS(=O)(=O)Cc1ccccc1)c1ccc(C(=O)O)nc1`, the IC50 was found to be 3000 nM. Then `O=C(NS(=O)(=O)c1cccc2ccccc12)c1ccc(C(=O)O)nc1`, with 4400 nM. In the case of `O=C(NS(=O)(=O)c1cc(Br)c(Br)s1)c1ccc(C(=O)O)nc1`, the IC50 is 8500 nM. In turn, `O=C(NS(=O)(=O)c1ccc(Cl)s1)c1ccc(C(=O)O)nc1` had an IC50 of 2400 nM. As for `O=C(NS(=O)(=O)c1cccc2cccnc12)c1ccc(C(=O)O)nc1`, half-maximal inhibition (IC50) was put at 1800 nM.

`O=C(NS(=O)(=O)c1ccc(-c2cc(Cl)c3ccc(Cl)cc3n2)cc1)c1ccc(C(=O)O)nc1` came in with an IC50 of 6600 nM. With `CS(=O)(=O)NC(=O)c1ccc(C(=O)O)nc1`, the half-inhibitory concentration (IC50) worked out at 1800 nM.

One may read the IC50 as the concentration that inhibits the measured activity by half.
